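Five concentrations, 48 hours, 96-well plates. The concentration for full growth arrest is given as TGI.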 Where a SMILES comes first, the peptide text is derived from it. [ ]: non-standard residue; d: D form. The star is where a group is joined. Boc = CC(C)(C)OC(=O)*; Lac = C[CH](O)C(=O)O; OBn = c1ccc(CO*)cc1
How the values were obtained:
Experiment in all cases: NCI tumour cell line growth inhibition, 48 h
[1] = test system: BT-549 breast
[2] = test system: DU-145 prostate
[3] = test system: HS 578T breast
[4] = test system: MDA-MB-435
[5] = test system: A498 renal
[6] = test system: KM20L2 colon
[7] = test system: P388 leukemia
[8] = test system: XF 498 CNS
[9] = test system: TK-10 renal
[10] = test system: LXFL 529 NSCLC

SMILES: CC(OC(=O)C(Cc1ccccc1)NC(=O)C(Cc1ccccc1)NC(=O)OC(C)(C)C)C(=O)OCc1ccccc1 (stereo not drawn) (Boc-Phe-Phe-[Lac]-OBn; configuration not given here)
- TGI [1]: > 100 µM
- TGI [2]: > 100 µM
- TGI [3]: > 100 µM
- TGI [4]: > 100 µM

SMILES: N/C(=N\N=C/c1ccc(O)c(O)c1O)NO
- TGI [5]: > 100 µM
- TGI [6]: 82.5 µM
- TGI [7]: 29.4 µM
- TGI [8]: > 100 µM

SMILES: NC(CCCCCCCCCCP(=O)(O)O)C(=O)O (configuration not stated)
- TGI [2]: > 100 µM
- TGI [3]: > 100 µM
- TGI [4]: > 100 µM
- TGI [9]: > 100 µM

SMILES: CC1(C)CCc2ccc(OCCC(=O)O)cc2O1
- TGI [10]: > 100 µM

SMILES: CCCCCCNC(=O)C(C)C1CCC2(C)C=CC(=O)C(C)=C2C1O (configuration not stated)
- TGI [5]: > 100 µM
- TGI [6]: > 100 µM
- TGI [7]: > 100 µM
- TGI [8]: > 100 µM
